# Data as given in the supplement of paper PMC10307832.
# Assays:
# Test in all cases: relative viability (nuclei count vs DMSO), 5 days (fraction); higher = more cells survive
# [1] = compound: CCOC1=CC=CC=C1N=NC2=C(NN(C2=O)C3=NC(=CS3)C4=CC=CC=C4)C [BAM7] + Cc1nc(NC(=O)N2CCC[C@H]2C(N)=O)sc1-c1ccnc(C(C)(C)C(F)(F)F)c1 [Alpelisib] (partner 2 µM)
# Method in brief: (§1)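 After 5 days of treatment, lung cancer cells in 1536-well plates were fixed and stained in a single step (final 0.05% Triton X-100, 1% formaldehyde, 1 ug/ml Hoechst) and their nuclei counted on 4× images. Treatment had been applied by pin tool the day after seeding as one drug alone or as a fixed anchor-drug dose with five library-drug doses (not always all listed) in √10 steps. Relative viability is the nuclei count of treated wells divided by that of vehicle wells, and values are medians of duplicate plates.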
# [2] = compound: CCn1c(-c2nonc2N)nc2c(C#CC(C)(C)O)ncc(OC[C@H]3CCCNC3)c21 + Cc1nc(Nc2ncc(C(=O)Nc3c(C)cccc3Cl)s2)cc(N2CCN(CCO)CC2)n1 [Dasatinib] (partner 0.075 µM)
# Method in brief: as §1
# [3] = compound: CCOC1=CC=CC=C1N=NC2=C(NN(C2=O)C3=NC(=CS3)C4=CC=CC=C4)C [BAM7] + Nc1nc2[nH]cc(CCc3ccc(C(=O)N[C@@H](CCC(=O)O)C(=O)O)cc3)c2c(=O)[nH]1 [Pemetrexed] (partner 0.2 µM)
# Method in brief: as §1
# [4] = compound: CCOC1=CC=CC=C1N=NC2=C(NN(C2=O)C3=NC(=CS3)C4=CC=CC=C4)C [BAM7] + O=C(c1cc(Cc2n[nH]c(=O)c3ccccc23)ccc1F)N1CCN(C(=O)C2CC2)CC1 [Olaparib] (partner 8 µM)
# Method in brief: as §1
cell line,measurement,setting,value
UMC-11,relative viability,[1]; first compound 0.5 µM,1.11
same,relative viability,[1]; first compound 5 µM,1.12
same,relative viability,[1]; first compound 15.81 µM,0.992
same,relative viability,[1]; first compound 50 µM,0.989
same,relative viability,[2]; first compound 0.01 µM,0.449
same,relative viability,[2]; first compound 0.03162 µM,0.498
same,relative viability,[2]; first compound 0.1 µM,0.438
same,relative viability,[2]; first compound 0.3162 µM,0.449
same,relative viability,[2]; first compound 1 µM,0.399
same,relative viability,[3]; first compound 0.5 µM,0.85
same,relative viability,[3]; first compound 5 µM,0.912
same,relative viability,[3]; first compound 15.81 µM,0.847
same,relative viability,[3]; first compound 50 µM,0.839
same,relative viability,[4]; first compound 0.5 µM,0.305
same,relative viability,[4]; first compound 5 µM,0.388
same,relative viability,[4]; first compound 15.81 µM,0.462
same,relative viability,[4]; first compound 50 µM,0.377
